What was measured:
Tau-BiFC cells = assay: Flow cytometry analysis of tau-BiFC cells; assay type: cell-based, human; conditions: for P1: intact cell population out of total cells: 24 h; for Median BiFC fluorescence intensity of BiFC-responding cells: BiFC^ON control […] ± 62, basal 332 ± 110
Description: After 24 h, BiFC cells were collected and subjected to flow cytometry analysis using a BD FACSLyric^TM cytometer (BD Biosciences). A total of 50,000 events were acquired per sample. All samples were gated using the same gating tree and gate positions: side scatter area (SSC-A) vs. forward scatter area (FSC-A) for viable and singlet cell populations. BiFC fluorescence was excited by a 488 nm wave laser and collected through a 527/32 bandpass filter.

[1] = test system: primary hippocampal neurons; assay: NeuO staining, number of neurons and neurite lengths; assay type: cell-based; conditions: for Number of NeuO-stained live neurons / Neurite length: tauK18^P301L, 48 h; for Number of NeuO-stained live neurons: basal 1925 ± 66, control 943 ± 30; for Neurite length: control 142.8 ± 17.8 μm
Description: Primary hippocampal neurons were isolated from Day 18 embryonic Sprague‒Dawley rat brains as described previously. The neurons were seeded at a density of 3.5 × 10^5 cells per well on a poly-D-lysine-coated 6-well plate and maintained in neurobasal medium at 37 °C in a humidified atmosphere of 5% CO2. The neurobasal medium contained 2% B27 supplement, 0.5 mM GlutaMAX, 100 units/mL penicillin, and 100 μg/mL streptomycin. Every 3 days, 50% of the medium was replaced with fresh neurobasal medium. At DIV10, neurons were incubated with MB, LMTM (3 µM), or levosimendan (10 µM) in the presence of tauK18^P301L (10 µg/mL) for 48 h.
At DIV10, neurons grown on a 96-well plate were treated with MB, LMTM (3 µM), or levosimendan (10 µM) followed by tauK18^P301L activation. After 48 h, the neurons were stained with NueO (50 nM), a neuron-selective probe. NeuO fluorescence (λex = 460–490 nm and λem = 518–580 nm) images were acquired by using Operetta® (PerkinElmer). The number of neurons and total lengths of neurites were quantified by Harmony 3.1 software (PerkinElmer). Error bars represent the standard deviations (S.D.) of four replicate experiments.

tau = tau (Homo sapiens, UniProt P10636); assay: Tau immunoblot of tau-BiFC cell lysates (reducing and nonreducing SDS-PAGE); conditions: tauK18^P301L-activated tau-BiFC cells; for Level of disulfide-linked tau oligomers compared to basal: nonreducing SDS-PAGE, control 2.4 ± 0.4-fold
Sequence of tau (P10636 1-441 isoform P10636-8): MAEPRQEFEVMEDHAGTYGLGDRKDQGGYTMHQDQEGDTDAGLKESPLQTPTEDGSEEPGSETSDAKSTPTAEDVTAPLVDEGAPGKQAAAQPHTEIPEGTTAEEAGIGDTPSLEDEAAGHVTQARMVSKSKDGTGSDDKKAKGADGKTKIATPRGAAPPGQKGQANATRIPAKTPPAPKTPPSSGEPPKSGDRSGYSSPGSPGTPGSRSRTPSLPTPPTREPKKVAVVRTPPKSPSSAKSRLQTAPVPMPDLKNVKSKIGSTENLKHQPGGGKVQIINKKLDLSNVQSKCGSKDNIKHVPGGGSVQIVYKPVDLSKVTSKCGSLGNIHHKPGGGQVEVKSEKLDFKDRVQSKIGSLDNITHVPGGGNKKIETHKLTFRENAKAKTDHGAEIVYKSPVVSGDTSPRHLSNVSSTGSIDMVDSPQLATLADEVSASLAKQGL
Sequence of tau (P10636 1-441 isoform P10636-8): as above
Description: For reducing SDS‒PAGE analysis, cell or brain lysates were mixed with 4x Laemmli buffer containing 10% β-mercaptoethanol (BME) and boiled at 97 °C for 5 min. For nonreducing SDS‒PAGE analysis, cell or brain lysates were mixed with 4x Laemmli buffer without BME. For immunoblot analysis, 10 μg of each lysate was separated on a 10% SDS–PAGE gel and transferred to a PVDF membrane. The levels of total tau and phosphorylated tau were detected by anti-tau antibodies against 2B11 (IBL), Tau5 (Abcam), pSer199 (Abcam), pSer396 (Abcam), and pThr205 (Abcam). […] Band intensity was quantified using ImageJ software (NIH). All data were normalized to β-actin.

Tau^P301L-BiFC mice [2] = assay: Tau immunoblot of RIPA-soluble and RIPA-insoluble brain lysates; assay type: in vivo, mouse; conditions: 5 mg/kg i.p., 4 months; for Level of disulfide-linked tau oligomers in the brain (nonreducing SDS-PAGE): RIPA-soluble brain lysates
Description: Band intensity was quantified using ImageJ software (NIH). All data were normalized to β-actin.
(§1) For drug administration, LMTM and levosimendan were dissolved in PBS containing 40% polyethylene glycol (PEG; Sigma). Nine-month-old Tau^P301L-BiFC mice were intraperitoneally administered each drug for 4 months, three times a week, at a dosage of 5 mg/kg (n = 11 per group). Vehicle-treated Tau^P301L-BiFC mice and age-matched wild-type mice were used as control groups. Behavioral assessments were conducted as described below for one month from the end of drug administration. All mice were sacrificed at the age of 14 months for pathological analysis.
Brains were weighed and suspended in RIPA lysis buffer (Sigma) containing protease and phosphatase inhibitor cocktails. Then, tissues were mechanically disrupted using a cordless mortar and pestle (Sigma) and incubated at 4 °C for 2 h with shaking. The homogenates were centrifuged at 20,000 × g at 4 °C for 20 min. The supernatants were collected as RIPA-soluble fractions and stored at −80 °C. To prepare RIPA-insoluble fractions, the remaining pellets were washed once with RIPA lysis buffer containing 1 M sucrose, resuspended in 2% SDS solution (1 mL per gram of tissue) and incubated at RT for 1 h. The mixtures were centrifuged at 20,000 × g for 1 min at RT. The supernatant was collected as RIPA-insoluble fractions and preserved at −80 °C.

Tau^P301L-BiFC mice [3] = assay: Novel object recognition test; assay type: in vivo, mouse; conditions: 5 mg/kg i.p., three times a week, 4 months; vehicle TG 0.49, WT 0.74
Description: as §1
The novel object recognition test was performed as described previously. Briefly, for habituation, mice (n = 9 per group) were individually placed in the center of an open field arena (40 × 40 cm) and could freely explore for 15 min. The next day, in the training trial (familiarization phase), the mice could explore two identical objects in the open field for 10 min. […] The exploration time for the familiar (old) or the new (novel) object during the recognition phase was recorded using a Noldus EthoVision XT video tracking system. Memory was operationally defined by the recognition index calculated by dividing the time an animal spent exploring the novel object or old object by the total time spent exploring objects in the testing period. The exploration time was measured when the mouse pointed toward the object in the vicinity of the object.

tauK18 = molecular target: T1, tauK18 (Homo sapiens, UniProt P10636); assay: In vitro tau disaggregation assay (thioflavin S); assay type: biochemical; conditions: preformed tauK18 aggregates, 4 days; read-out: EC50, tau disaggregation (ThS)
T1 construct: under in vitro conditions using a purified tauK18 fragment; 6xHis; made in house; host or cells: E. coli BL21 (DE3)
T1 sequence (P10636 561-685 limits assumed): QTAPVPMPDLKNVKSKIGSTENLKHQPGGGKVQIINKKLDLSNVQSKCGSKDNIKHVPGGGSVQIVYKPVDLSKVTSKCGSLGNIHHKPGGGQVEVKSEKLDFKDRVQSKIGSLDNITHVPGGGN
Description: To evaluate the inhibitory effect of drugs on tau aggregation, tauK18 protein (0.5 mg/mL) was incubated with each drug at various concentrations in the presence of DTT (100 μM) and heparin (0.1 mg/mL) at 37 °C for 5 days with vigorous shaking (220 rpm). For the tau disaggregation assay, the preformed aggregation mixture of tauK18 was incubated with each drug at 37 °C for 4 days with vigorous shaking (220 rpm). On the final day of incubation, the level of β-sheet aggregates was evaluated by thioflavin S (ThS) assay. For the ThS assay, 5 μL of each mixture was transferred to a black 384-well plate with 45 μL of PBS containing 10 μM ThS. ThS fluorescence (λex = 430 nm, and λem = 500 nm) was measured by using a Flexstation2 spectrophotometer (Molecular Devices).

[4] = 1H NMR of reaction with N-acetyl-L-cysteine methyl ester; conditions: room temperature
Description: NMR analysis was performed at 25 °C and recorded in δ units relative to deuterated solvent as an internal reference using a 400 MHz NMR instrument (Bruker). Deuterated phosphate-buffered saline (d-PBS) was prepared at a concentration of 50 mM (D2O + H2O, 1:1, v/v). Levosimendan (50 mg, […], 1 equivalent) reacted with N-acetyl-L-cysteine methyl ester (38 mg, […], 1.2 equivalent) in 10 mL of d-PBS/DMSO-d6 (1:1, v/v) at room temperature, and the reaction was checked at various time points. For the reversibility study, the reaction mixture was diluted ten times with d-PBS/DMSO-d6 (1:1, v/v) and monitored at room temperature.

## CN(C)c1ccc2c(c1)Sc1cc(N(C)C)ccc1N2.CS(=O)(=O)O.CS(=O)(=O)O [LMTM, leucomethylene blue mesylate]
Tau-BiFC cells; drug 5 μM with tauK18^P301L
  P1: intact cell population out of total cells: 14.5%
  Median BiFC fluorescence intensity of BiFC-responding cells: 596 ± 57
[1]; 3 μM
  Number of NeuO-stained live neurons: 1182 ± 76 neurons
  Neurite length: 151.1 ± 24.4 μm
[1]; higher concentrations over 10 μM (data not shown)
  Neuronal cell death in primary hippocampal neurons: severe neuronal cell death
tau; 5 μM
  Level of disulfide-linked tau oligomers compared to basal: 1.9 ± 0.4 fold
tau; 5 μM, reducing gel
  Level of pS199-positive monomers compared to basal: 0.3 ± 0.0 fold
  Level of pS199-positive oligomers compared to basal: 0.4 ± 0.1 fold
  Level of pT205-positive monomers compared to basal: 0.2 ± 0.2 fold
  Level of pT205-positive oligomers compared to basal: 0.6 ± 0.2 fold
Tau^P301L-BiFC mice [2]
  Level of disulfide-linked tau oligomers in the brain (nonreducing SDS-PAGE): did not increase or decrease
Tau^P301L-BiFC mice [2]; vehicle 1.00
  Fold change, RIPA-insoluble tau (IB: Tau5): 0.7 ± 0.1 fold
  Fold change, RIPA-soluble tau phosphorylation at S199: 0.6 ± 0.1 fold
  Fold change, RIPA-soluble tau phosphorylation at S396: 0.8 ± 0.2 fold
Tau^P301L-BiFC mice [3]
  Recognition index (RI) for a novel object: 0.59
tauK18
  EC50: 3.4 ± 0.2 µM

## C[C@@H]1CC(=O)NN=C1c1ccc(NN=C(C#N)C#N)cc1 [Levosimendan]
Tau-BiFC cells; drug 15 μM with tauK18^P301L
  P1: intact cell population out of total cells: 69.0%
  Median BiFC fluorescence intensity of BiFC-responding cells: 249 ± 59
[1]; 10 μM
  Number of NeuO-stained live neurons: 1650 ± 114 neurons
  Neurite length: 346.8 ± 20.7 μm
tau; 45 μM
  Level of disulfide-linked tau oligomers compared to basal: 0.8 ± 0.2 fold
tau; 45 μM, control 1.9 ± 0.2-fold
  Level of tau phosphorylation at T205 compared to basal: 1.0 ± 0.1 fold
tau; control 2.0 ± 0.1-fold
  Total tau level compared to basal: 1.0 ± 0.2 fold
Tau^P301L-BiFC mice [2]
  Level of disulfide-linked tau oligomers in the brain (nonreducing SDS-PAGE): significantly decreased the high-molecular-weight oligomers
Tau^P301L-BiFC mice [2]; vehicle 1.00
  Fold change, RIPA-insoluble tau (IB: Tau5): 0.5 ± 0.2 fold
  Fold change, RIPA-soluble tau phosphorylation at S199: 0.5 ± 0.0 fold
  Fold change, RIPA-soluble tau phosphorylation at S396: 0.5 ± 0.1 fold
  Fold change, RIPA-soluble total tau (IB: Tau5): decreased slightly
Tau^P301L-BiFC mice [3]
  Recognition index (RI) for a novel object: 0.69
[4]; reaction mixture diluted ten times
  Time to almost complete restoration of levosimendan upon ten-fold dilution: 5 days
[4]; with N-acetyl-L-cysteine methyl ester
  Time to complete formation of the levosimendan-cysteine conjugate: ≤ 2 h
tauK18
  EC50: 3.7 ± 0.2 µM

From paper PMC10073126, “Levosimendan inhibits disulfide tau oligomerization and ameliorates tau pathology in Tau^P301L-BiFC mice” (Experimental & Molecular Medicine, 2023)
